Like-named read-outs stand apart in the source and are kept apart here.

The subject of one data set is HBV. As to the kind of experiment: anti HBV activity, HepG2.117 cell line, intracellular HBV DNA by realtime PCR. It counts as cell-based. The following applies: HepG2.117 cell line (Tet-off), 3 days of treatment, intracellular HBV DNA quantified by realtime PCR, read-out: HBV-AVE-HepG2.117 EC50. As to the method:
The anti HBV activity was measured using the HepG2.117 cell line, a stable, inducibly HBV producing cell line, which replicates HBV in the absence of doxicycline (Tet-off system). For the antiviral assay, HBV replication was induced, followed by a treatment with serially diluted compound in 96-well plates in duplicate. After 3 days of treatment, the antiviral activity was determined by quantification of intracellular HBV DNA using realtime PCR and an HBV specific primer set and probe.

The nature of data set [1]: Cytotoxicity in HepG2 cells, Resazurin assay. The following applies: human, HepG2 cells, TOX-HepG2-4 d CC50 (μM), HepG2 cells incubated for 4 days, viability by Resazurin assay. (Resazurin is reduced to fluorescent resorufin, in cell work by metabolically active cells.)
The mark [2] stands for this setting: Hepatitis B virus, HepG2.117, 72 h.

On to `C[C@H](O)[C@H]1C=Cc2c(cn(C)c2C(=O)Nc2ccc(F)c(F)c2)S(=O)(=O)N1` [Compound 84, (3R)—N-(3,4-difluorophenyl)-3-[(1S)-1-hydroxyethyl]-7-methyl-1,1-dioxo-2,3-dihydropyrrolo[3,4-f]thiazepine-6-carboxamide], for which the EC50 (as a rule, the midpoint of the concentration-response curve) in the data set on HBV (setting [2]) was 10 nM. The CC50 – broadly, the concentration that lowers cell viability or growth by half – at 4 days in data set [1] was over 25 µM.

With `Cn1cc2c(c1C(=O)Nc1ccc(F)c(C#N)c1)CCC(C(C)(C)O)NS2(=O)=O` (single isomer, unassigned) [Compound 116a, N-(3-cyano-4-fluoro-phenyl)-3-(1-hydroxy-1-methyl-ethyl)-7-methyl-1,1-dioxo-2,3,4,5-tetrahydropyrrolo[3,4-f]thiazepine-6-carboxamide], in the data set with HBV, the half-maximal effective concentration (EC50) stood at 22 nM. Also, the half-maximal cytotoxic concentration (CC50) at 4 days in data set [1] was over 25 µM.

For `C[C@H](O)[C@H]1C=Cc2c(cn(C)c2C(=O)Nc2ccc(F)c(C(F)F)c2F)S(=O)(=O)N1` [Compound 186, (3R)—N-[3-(difluoromethyl)-2,4-difluoro-phenyl]-3-[(1S)-1-hydroxyethyl]-7-methyl-1,1-dioxo-2,3-dihydropyrrolo[3,4-f]thiazepine-6-carboxamide], in the data set with HBV (setting [2]), the EC50 was 11 nM. The CC50 at 4 days in data set [1] is over 25 µM.

As to `C[C@H](O)[C@H]1COc2c(cn(C)c2C(=O)Nc2ccc(F)c(F)c2)S(=O)(=O)N1` [Compound 35, (3R)—N-(3,4-difluorophenyl)-3-[(1S)-1-hydroxyethyl]-7-methyl-1,1-dioxo-3,4-dihydro-2H-pyrrolo[3,4-b][1,4,5]oxathiazepine-6-carboxamide], in the data set with HBV (setting [2]), the EC50 amounted to 12 nM. The compound also yielded a CC50 at 4 days in data set [1] of over 25 µM.

As to `Cn1ccc(CC2(C)COc3c(cn(C)c3C(=O)Nc3ccnc(C(F)F)c3)S(=O)(=O)N2)n1` (single isomer, unassigned) [Compound 217a, N-[2-(difluoromethyl)-4-pyridyl]-3,7-dimethyl-3-[(1-methylpyrazol-3-yl)methyl]-1,1-dioxo-2,4-dihydropyrrolo[3,4-b][1,4,5]oxathiazepine-6-carboxamide], in the data set with HBV, the EC50 was found to be 25 nM. The CC50 at 4 days in data set [1] is over 25 µM.

As for `CC(C)C1CCc2c(cn(C)c2C(=O)Nc2ccc(F)c(C#N)c2)S(=O)(=O)N1` (stereo not drawn) [Compound 85, N-(3-cyano-4-fluoro-phenyl)-3-isopropyl-7-methyl-1,1-dioxo-2,3,4,5-tetrahydropyrrolo[3,4-f]thiazepine-6-carboxamide], the EC50 in the data set with HBV (setting [2]) was determined as 7 nM. In data set [1], this compound had a 50% cytotoxic concentration (CC50) at 4 days of over 25 µM.

In the case of `Cn1cc2c(c1C(=O)Nc1ccc(F)c(C(F)F)c1)C=CC1(COC1)NS2(=O)=O` [Compound 139, N-[3-(difluoromethyl)-4-fluoro-phenyl]-7-methyl-1,1-dioxo-spiro[2H-pyrrolo[3,4-f]thiazepine-3,3′-oxetane]-6-carboxamide], the EC50 in the data set on HBV (setting [2]) worked out at 16 nM. This compound also gave a CC50 at 4 days in data set [1] of over 25 µM.

With `COC(=O)C1COc2c(cn(C)c2C(=O)Nc2ccc(F)c(F)c2)S(=O)(=O)N1` (stereo not drawn) [compound 243], the EC50 in the data set on HBV (setting [2]) was over 500 nM. Further, the CC50 at 4 days in data set [1] was over 25 µM.

For `CC1CCC/C=C/Cc2c(cn(C)c2C(=O)Nc2ccc(F)c(F)c2)S(=O)(=O)N1` (stereo not drawn) [Compound 2b, 8E-N-(3,4-difluorophenyl)-4,13-dimethyl-2,2-dioxo-2λ^6-thia-3,13-diazabicyclo[9.3.0]tetradeca-1(14),8,11-triene-12-carboxamide], the EC50 in the data set with HBV (setting [2]) amounted to 490 nM. In data set [1], this compound yielded a CC50 at 4 days of over 25 µM.

On to `Cn1cc2c(c1C(=O)Nc1ccc(F)c(C#N)c1)OC[C@H](C(O)C1CC1)NS2(=O)=O` (stereo partly drawn) [Compound 120a, (3R)—N-(3-cyano-4-fluoro-phenyl)-3-[cyclopropyl(hydroxy)methyl]-7-methyl-1,1-dioxo-3,4-dihydro-2H-pyrrolo[3,4-b][1,4,5]oxathiazepine-6-carboxamide], for which, in the data set on HBV (setting [2]), the EC50 came out at 7 nM. In data set [1], this compound came in with a CC50 at 4 days of over 25 µM.

`Cn1cc2c(c1C(=O)Nc1ccc(F)c(F)c1)OCC(C1CCOCC1)NS2(=O)=O` (single isomer, unassigned) [Compound 89a, N-(3,4-difluorophenyl)-7-methyl-1,1-dioxo-3-tetrahydropyran-4-yl-3,4-dihydro-2H-pyrrolo[3,4-b][1,4,5]oxathiazepine-6-carboxamide]: in the data set with HBV, the EC50 was found to be 190 nM. For the same compound, the CC50 at 4 days in data set [1] is over 25 µM.

`Cc1c2c(c(C(=O)Nc3ccc(F)c(F)c3)n1C)CC[C@H](C)NS2(=O)=O` [Compound 152, (3S)—N-(3,4-difluorophenyl)-3,7,8-trimethyl-1,1-dioxo-2,3,4,5-tetrahydropyrrolo[3,4-f]thiazepine-6-carboxamide]: the EC50 in the data set with HBV (setting [2]) was 14 nM. Also, the CC50 at 4 days in data set [1] is over 25 µM.

On to `CCC(O)[C@H]1COc2c(cn(C)c2C(=O)Nc2ccc(F)c(C(F)F)c2)S(=O)(=O)N1` (stereo partly drawn) [Compound 124a, (3R)—N-[3-(difluoromethyl)-4-fluoro-phenyl]-3-(1-hydroxypropyl)-7-methyl-1,1-dioxo-3,4-dihydro-2H-pyrrolo[3,4-b][1,4,5]oxathiazepine-6-carboxamide], for which the EC50 in the data set on HBV (setting [2]) was determined as 5 nM. Moreover, the CC50 at 4 days in data set [1] was over 25 µM.

On to `CC1C/C=C\c2c(cn(C)c2C(=O)Nc2ccc(F)c(F)c2)S(=O)(=O)N1` (single isomer, unassigned) [Compound 15a, (5Z)—N-(3,4-difluorophenyl)-3,8-dimethyl-1,1-dioxo-3,4-dihydro-2H-pyrrolo[3,4-g]thiazocine-7-carboxamide], for which, in the data set on HBV, the EC50 worked out at 78 nM. The compound further yielded a CC50 at 4 days in data set [1] of over 25 µM.

Take `Cn1cc2c(c1C(=O)Nc1ccc(F)c(F)c1)OC[C@H]([C@H](O)c1ccccc1)NS2(=O)=O` [Compound 36, (3R)—N-(3,4-difluorophenyl)-3-[(R)-hydroxy(phenyl)methyl]-7-methyl-1,1-dioxo-3,4-dihydro-2H-pyrrolo[3,4-b][1,4,5]oxathiazepine-6-carboxamide]: the half-maximal effective concentration (EC50) in the data set on HBV (setting [2]) was 5 nM. In data set [1], this compound had a CC50 at 4 days of over 25 µM.

`Cn1cc2c(c1C(=O)Nc1ccc(F)c(F)c1)CCC(C(F)(F)F)NS2(=O)=O` (stereo not drawn) [Compound 47, N-(3,4-difluorophenyl)-7-methyl-1,1-dioxo-3-(trifluoromethyl)-2,3,4,5-tetrahydropyrrolo[3,4-f]thiazepine-6-carboxamide]: the EC50 in the data set with HBV (setting [2]) is 17 nM. In addition, in data set [1], the CC50 at 4 days is over 25 µM.

For `Cn1cc2c(c1C(=O)Nc1ccc(F)c(C#N)c1)CCC(C(C)(O)C(F)(F)F)NS2(=O)=O` (stereo not drawn) [Compound 117, N-(3-cyano-4-fluoro-phenyl)-7-methyl-1,1-dioxo-3-(2,2,2-trifluoro-1-hydroxy-1-methyl-ethyl)-2,3,4,5-tetrahydropyrrolo[3,4-f]thiazepine-6-carboxamide], the EC50 in the data set on HBV (setting [2]) came to 10 nM. In addition, the CC50 at 4 days in data set [1] was over 25 µM.

With `Cc1cc(C2(C)COc3c(cn(C)c3C(=O)Nc3ccc(F)c(C(F)F)c3)S(=O)(=O)N2)no1` (racemic) [Compound 181, N-[3-(difluoromethyl)-4-fluoro-phenyl]-3,7-dimethyl-3-(5-methylisoxazol-3-yl)-1,1-dioxo-2,4-dihydropyrrolo[3,4-b][1,4,5]oxathiazepine-6-carboxamide], the EC50 in the data set on HBV (setting [2]) worked out at 8 nM. For the same compound, the CC50 at 4 days in data set [1] was over 25 µM.

With `Cn1cc2c(c1C(=O)Nc1ccc(F)c(F)c1)OC[C@@](C)(Cc1ccccc1)NS2(=O)=O` [Compound 154, (3R)-3-benzyl-N-(3,4-difluorophenyl)-3,7-dimethyl-1,1-dioxo-2,4-dihydropyrrolo[3,4-b][1,4,5]oxathiazepine-6-carboxamide], the EC50 in the data set on HBV (setting [2]) came to 8 nM. Besides, in data set [1], the CC50 at 4 days was over 25 µM.

Turning to `Cn1cc2c(c1C(=O)Nc1ccc(F)c(F)c1)CCC(CO)(CO)NS2(=O)=O` [Compound 201, N-(3,4-difluorophenyl)-3,3-bis(hydroxymethyl)-7-methyl-1,1-dioxo-4,5-dihydro-2H-pyrrolo[3,4-f]thiazepine-6-carboxamide], the EC50 in the data set with HBV (setting [2]) turned out to be 110 nM. In data set [1], the CC50 at 4 days is over 25 µM.

For the compound `CO[C@H](C)[C@H]1COc2c(cn(C)c2C(=O)Nc2ccc(F)c(F)c2)S(=O)(=O)N1` [Compound 62, (3R)—N-(3,4-difluorophenyl)-3-[(1R)-1-methoxyethyl]-7-methyl-1,1-dioxo-3,4-dihydro-2H-pyrrolo[3,4-b][1,4,5]oxathiazepine-6-carboxamide], in the data set on HBV (setting [2]), the concentration for a half-maximal effect (EC50) amounted to 9 nM. Moreover, in data set [1], the CC50 at 4 days was over 25 µM.

With `CC(C)[C@H]1COc2c(ccc(F)c2C(=O)Nc2ccc(F)c(F)c2)S(=O)(=O)N1` [Compound 44, (3S)—N-(3,4-difluorophenyl)-7-fluoro-3-isopropyl-1,1-dioxo-3,4-dihydro-2H-5,1λ^6,2-benzoxathiazepine-6-carboxamide], the EC50 with HBV (setting [2]) was 170 nM. In data set [1], this compound displayed a CC50 at 4 days of over 25 µM.

In the case of `CC(C)C1C=Cc2c(cn(C)c2C(=O)Nc2ccc(F)c(F)c2)S(=O)(=O)N1` (single isomer, unassigned) [Compound 79a, N-(3,4-difluorophenyl)-3-isopropyl-7-methyl-1,1-dioxo-2,3-dihydropyrrolo[3,4-f]thiazepine-6-carboxamide], the EC50 in the data set with HBV was found to be 43 nM. Also, in data set [1], the CC50 at 4 days is over 25 µM.

For `C[C@@H](N1CC/C=C\c2c(cn(C)c2C(=O)Nc2ccc(F)c(F)c2)S1(=O)=O)C(F)(F)F` [Compound 3, (5Z)—N-(3,4-difluorophenyl)-8-methyl-1,1-dioxo-2-[(1R)-2,2,2-trifluoro-1-methyl-ethyl]-3,4-dihydropyrrolo[3,4-g]thiazocine-7-carboxamide], the EC50 in the data set on HBV (setting [2]) was over 500 nM. In data set [1], this compound had a CC50 at 4 days of over 25 µM.

Values taken from patent US10875876B2, “Cyclized sulfamoylarylamide derivatives and the use thereof as medicaments for the treatment of hepatitis B” (priority 2015, dated 2020).
